For assay [1], the system named is FATZO mice. The settings on record: for serum glucose concentrations in the fed state: after 8 weeks, vehicle 315.6±35.4; for serum glucose concentrations in the fed state / body weight change over the 8-week observation period: rosiglitazone 10 mg/kg/day, metformin 150 mg/kg/day; for body weight change over the 8-week observation period: oral once daily 8 weeks, vehicle 1.8±0.2. How it is done: Male FATZO mice (9 weeks of age, n=40) were maintained on Purina 5008 regular rodent chow and reverse osmosis water ad libitum. Mice were housed 3 per cage and acclimated to study environment for 7 days prior to study. At 10 weeks of age, mice were fasted for 6 hours, body weight was recorded and an OGTT performed. Glucose and insulin were assayed at 0, 30, 60, 90, 120 and 180 minutes following a 2 g/kg glucose load. Glucose concentrations were obtained from StatStrip glucometer and insulin was assayed at each time-point using the insulin kit mentioned above. Insulin sensitivity index (ISI) was calculated using a formula modified from Matsuda and DeFronzo [39] by changing the numerator to 10,000 and using glucose and insulin AUCs instead of average glucose and insulin levels ([…]/square root of [fasting glucose x fasting insulin]×[glucose AUC×insulin AUC during OGTT]).
Animals were randomized into 3 groups of 10 based on baseline ISI and body weight. […] Compounds were administered orally once daily by gavage for 8 weeks. Body weight was recorded weekly.
Following 8 weeks of treatment, OGTT was repeated one hour after compound administration. Whole blood was taken from tail clip and processed to serum. Treatment effects on glucose disposal, fed serum glucose, HbAlc, and ISI were compared to vehicle.

Assay [2] deals with FATZO mice. Kind of assay: Effect of leptin on food intake in FATZO mice. The settings on record: leptin 10 mg/kg, first 4 hours of darkness. The assay is classed as in vivo, mouse. How it is done:
Two age groups of male FATZO mice were selected for leptin levels and the effect of leptin on food intake. Additional age matched groups of C57BL/6 were bled for leptin levels. Animals were acclimated to reverse light cycle for 7 days before being put on protocol. […] Serum was prepared from tail blood and leptin levels were analyzed (Meso Scale Discovery, K152BYC, Rockville, Md., USA). After blood collection, animals were given saline or leptin injections (10 mg/kg) and food intake data was recorded for the first 4 hours of darkness.

Setting [3] is: after 8 weeks of administration, compared to vehicle.

Data on three molecules can be found in patent US11020494B2, “Animal models for nonalcoholic fatty liver disease” (CROWN BIOSCIENCE INC. (TAICANG), priority 2017, dated 2021).

Consider `CN(C)C(=N)N=C(N)N` [metformin], for which, in the assay on FATZO mice [1] (setting [3]), the “AUC for glucose during OGTT” value is “significant reductions”, the “calculated insulin sensitivity index (ISI)” value is recorded as “significant improvements” and the “insulin AUC during OGTT” value is recorded as “significant improvements”. Moreover, in the assay on FATZO mice [1], the “serum glucose concentrations in the fed state” value came out at 250.0 ± 12.8 mg/dL and the “body weight change over the 8-week observation period” value was -0.2 ± 0.6 g.
For `CN(CCOc1ccc(CC2SC(=O)NC2=O)cc1)c1ccccn1` (stereo not drawn) [rosiglitazone], in the assay on FATZO mice [1], the “serum glucose concentrations in the fed state” value was 233.3 ± 7.7 mg/dL and the “body weight change over the 8-week observation period” value came out at 5.3 ± 0.7 g.
On to leptin, for which the “food intake after leptin injection” value with FATZO mice [2] (FATZO at 10 weeks of age) is listed as “no significant reduction”. In the assay with FATZO mice [2] (young FATZO animals (5 weeks)), the “food consumption after leptin injection” value was “significantly reduced”.
